Data published in paper PMC7315563, “Bioactive fluorenes. Part III: 2,7-dichloro-9H-fluorene-based thiazolidinone and azetidinone analogues as anticancer and antimicrobial against multidrug resistant strains agents” (BMC Chemistry, 2020).
Values after ≈ are worked out from the molar mass of the structure shown.

Assays:
[1] = system: Staphylococcus aureus (S. aureus), multidrug resistant clinical isolate; assay: agar well diffusion assay; assay type: cell-based; settings: Staphylococcus aureus; S. aureus; 500 µg/mL of tested compound; 24 h
From the text: All microbial strains were kindly provided from the department of Medical Microbiology and Immunology faculty of Medicine Assiut University, these clinical isolates were obtained from clinical cases of infections admitted to Assiut University hospital as urinary tract infections, corneal ulcers, bacterial and fungal pneumonia, otomycosis, oral thrush and wound infections.
The clinical isolates used were multidrug resistant strains, they were resistant to β lactam (penicillin, amoxacillin, oxacillin), cephalosporins (cefazolin, cefaclor and cefepime) and macrolides (erythromycin and clarithromycin), they included Gram positive bacteria as Staphylococcus aureus (S. aureus), Methicillin-resistant Staphylococcus aureus (MRSA), Streptococcus pneumoniae (S. pneumoniae), and Gram negative bacteria as Escherichia coli (E. coli), Klebsiella pneumoniae (K. pneumoniae), Pseudomonas aeruginosa (P. aeruginosa), and Acinetobacter baumannii (A. baumannii). The fungal strains that were tested are Aspergillus flavus (A. flavus), A. niger (A. niger) and Candida albicans (C. albicans).
The antimicrobial activity of the fluorene derivatives was initially evaluated by agar well diffusion assay. Mueller–Hinton agar (CM0337) was poured into Petri dishes at 50–60 °C and left to solidify for 15 min. Subsequently, overnight microbial suspensions of tested strains was adjusted to turbidity of 0.5 McFarland Standard, which equals to 1–2 × 10^8 CFU/mL for bacteria and 1–5 × 10^6 for fungi. The microbial inoculums were then diluted in 1:100 ratio in case of bacteria and 1:10 ratio in case of fungi in order to get 1–5 × 10^5 CFU/mL. a sterile cotton swab was dipped into the adjusted microbial suspension and the Mueller–Hinton agar plates were inoculated by evenly streaking cotton swab over the agar medium. Then wells with a diameter of 0.5 cm were cut in the medium with a sterile cork borer. Stock solutions of the flourene derivatives were diluted in DMSO 1% to get 500 μg/mL concentrations. The tested flourene derivatives and controls (50 μL) were dispensed into the wells. The plates were incubated for 24 h at 37 °C for bacteria and C. albicans while at 25 °C for A. falvus and A. niger. The diameters of zones of inhibition (ZOI) around the wells were measured in mm. Following control agents were used: positive control agents—vancomycin (50 μg/mL) for Gram positive bacteria, gentamicin (10 μg/mL) (for Gram negative bacteria) and fluconazole 25 μg/mL for fungi and negative control agent is 1% DMSO.

[2] = system: MDA-MB-231 human breast cancer cells; assay: cell viability assay (MTT); assay type: cell-based; settings: 24 h; for viability at 1 µg/mL: read-out: Validity (%) for sample concentrations (µg/mL) 1; for viability at 10 µg/mL: read-out: Validity (%) for sample concentrations (µg/mL) 10; for viability at 31.25 µg/mL: read-out: Validity (%) for sample concentrations (µg/mL) 31.25; for viability at 62.5 µg/mL: read-out: Validity (%) for sample concentrations (µg/mL) 62.5; for viability at 125 µg/mL: read-out: Validity (%) for sample concentrations (µg/mL) 125; for viability at 250 µg/mL: read-out: Validity (%) for sample concentrations (µg/mL) 250; for viability at 500 µg/mL: read-out: Validity (%) for sample concentrations (µg/mL) 500
Procedure: (§1) WI-38 normal lung fibroblast cells, A549 lung cancer cells, and MDA-MB-231 breast cancer cells were obtained from VACSERA—Cell Culture Unit, Cairo, Egypt. The cell lines were originally obtained from the American Tissue Culture Collection (ATCC). WI-38, A549, and MDA-MB-231 cell lines were cultured in RPMI-1640 medium supplemented with 10% inactivate fetal bovine serum (FBS) and 1% penicillin/streptomycin were bought (Gibco, Invitrogen, CA). WI-38, A549, and MDA-MB-231 cells were seeded into 96-well plates (at a density of 5000 cells/well). On the following day, cells were treated with different concentrations (0, 1, 10, 31.25, 62.5, 125, 250, 500 µg/mL) of 16 fluorene derivatives in fresh medium and incubated for another 24 h. Cell viability was then assessed using the MTT assay (Sigma Aldrich, St. Louis, MO, USA), and the absorbance was read at 570 nm using an ELISA microplate reader (Molecular Devices, Downingtown, PA, USA).

[3] = system: WI-38 human normal fibroblast cells; assay: cell viability assay (MTT); assay type: cell-based; settings: 24 h; for viability at 31.25 µg/mL: read-out: Validity (%) for sample concentrations (µg/mL) 31.25; for viability at 62.5 µg/mL: 62.50 µg/mL, read-out: Validity (%) for sample concentrations (µg/mL) 62.50; for viability at 125 µg/mL: read-out: Validity (%) for sample concentrations (µg/mL) 125; for viability at 250 µg/mL: read-out: Validity (%) for sample concentrations (µg/mL) 250; for viability at 500 µg/mL: read-out: Validity (%) for sample concentrations (µg/mL) 500
Procedure: as §1

[4] = system: A549 human lung cancer cells; assay: cell viability assay (MTT); assay type: cell-based; settings: 24 h; for viability at 1 µg/mL: read-out: Validity (%) for sample concentrations (µg/mL) 1; for viability at 10 µg/mL: read-out: Validity (%) for sample concentrations (µg/mL) 10; for viability at 31.25 µg/mL: read-out: Validity (%) for sample concentrations (µg/mL) 31.25; for viability at 62.5 µg/mL: 62.50 µg/mL, read-out: Validity (%) for sample concentrations (µg/mL) 62.50; for viability at 125 µg/mL: read-out: Validity (%) for sample concentrations (µg/mL) 125; for viability at 250 µg/mL: read-out: Validity (%) for sample concentrations (µg/mL) 250; for viability at 500 µg/mL: read-out: Validity (%) for sample concentrations (µg/mL) 500; for viability at 1000 µg/mL: read-out: Validity (%) for sample concentrations (µg/mL) 1000
Procedure: as §1, with “On the following day, cells were treated with different concentrations (0, 1, 10, 31.25, 62.5, 125, 250, 500 µg/mL) of 16 fluorene derivatives in fresh medium and incubated for another 24 h.” left out

SMILES | zone of inhibition at 500 µg/mL [1] [mm] | viability at 1 µg/mL [2] [%] | viability at 10 µg/mL [2] [%] | viability at 31.25 µg/mL [2] [%] | viability at 62.5 µg/mL [2] [%] | viability at 125 µg/mL [2] [%] | viability at 250 µg/mL [2] [%] | viability at 500 µg/mL [2] [%] | IC50 [2] [µg/mL] | viability at 31.25 µg/mL [3] [%] | viability at 62.5 µg/mL [3] [%] | viability at 125 µg/mL [3] [%] | viability at 250 µg/mL [3] [%] | viability at 500 µg/mL [3] [%] | IC50 [3] [µg/mL] | viability at 1 µg/mL [4] [%] | viability at 10 µg/mL [4] [%] | viability at 31.25 µg/mL [4] [%] | viability at 62.5 µg/mL [4] [%] | viability at 125 µg/mL [4] [%] | other results
O=C1CSC(C=Cc2ccccc2)N1c1nc(-c2cc(Cl)cc3c2-c2ccc(Cl)cc2C3)cs1 (stereo not drawn) [5i, 3-(4-(2,7-Dichloro-9H-fluoren-4-yl)thiazol-2-yl)-2-styrylthiazolidin-4-one] | 10 | 96 | 83.8 | 61 | 56.2 | 52.2 | 50.5 | 46.1 | 334 (≈ 640 µM) | 88.2 | 86.9 | 69.1 | 63.1 | 59.3 | > 500 | 93.3 | 92.2 | 91.4 | 85.6 | 81.3 | viability at 250 µg/mL [4]: 76.9%; viability at 500 µg/mL [4]: 63.2%; viability at 1000 µg/mL [4]: 49.3%; IC50 [4]: 896 µg/mL (≈ 1720 µM); melting point: 114 to 116 °C
COc1ccc(C2SCC(=O)N2c2nc(-c3cc(Cl)cc4c3-c3ccc(Cl)cc3C4)cs2)cc1 (stereo not drawn) [5b, 3-(4-(2,7-Dichloro-9H-fluoren-4-yl)thiazol-2-yl)-2-(4-methoxyphenyl)thiazolidin-4-one] | 4 | 97.8 | 97.4 | 90.8 | 88.6 | 87.3 | 83.6 | 81.5 | > 500 | 99.4 | 94.4 | 91.3 | 81.2 | 79 | > 500 | 91.2 | 85.4 | 84 | 67.8 | 64.3 | viability at 250 µg/mL [4]: 57.1%; viability at 500 µg/mL [4]: 44.2%; viability at 1000 µg/mL [4]: 17.8%; IC50 [4]: 402 µg/mL (≈ 765 µM); melting point: 74 to 76 °C
O=C1CSC(c2ccc(Br)cc2)N1c1nc(-c2cc(Cl)cc3c2-c2ccc(Cl)cc2C3)cs1 (stereo not drawn) [5d, 2-(4-Bromophenyl)-3-(4-(2,7-dichloro-9H-fluoren-4-yl)thiazol-2-yl)thiazolidin-4-one] | 4 | 96.8 | 94.4 | 93.7 | 92.4 | 88.4 | 87.2 | 85.7 | > 500 | 94.9 | 88.5 | 86.1 | 50.7 | 44.2 | 268 (≈ 467 µM) | 98.4 | 91.7 | 88.9 | 82.2 | 78.8 | viability at 250 µg/mL [4]: 73%; viability at 500 µg/mL [4]: 58.6%; viability at 1000 µg/mL [4]: 18.1%; IC50 [4]: 574 µg/mL (≈ 999 µM); melting point: 155 to 157 °C
